Biological target: T1, Human BCL-XL protein (N-terminal HiBiT tagged BCL-XL in HT1080 cells) (Homo sapiens, UniProt Q07817)
T1 construct: expressed in transfected cells; host or cells: HT-1080 (ATCC CCL-121), stably transduced with lentivirus pLV-UBC-N-HiBiT-BCL-XL-PGK-puro and selected with puromycin
Test: HiBiT based degradation assay
Format: cell-based
Conditions: HT1080 cells expressing HiBiT-BCL-XL, 24 h; for Ymin (24 h): BCL-XL degradation normalized with DMSO control; for DC50: BCL-XL degradation, read-out: EC50 (24 h)
How it was run: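 HT1080 cells stably transduced by lentivirus with N-terminally HiBiT-tagged human BCL-XL and kept under 1 μg/mL puromycin selection were seeded at three thousand cells per well in 40 μL RPMI 1640 into 384-well plates pre-spotted with compounds across a concentration range. Luminescence was read on a PHERAstar FSX, normalized to DMSO, and fitted with a four-parameter logistic model.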

T1 sequence (Q07817 whole entry): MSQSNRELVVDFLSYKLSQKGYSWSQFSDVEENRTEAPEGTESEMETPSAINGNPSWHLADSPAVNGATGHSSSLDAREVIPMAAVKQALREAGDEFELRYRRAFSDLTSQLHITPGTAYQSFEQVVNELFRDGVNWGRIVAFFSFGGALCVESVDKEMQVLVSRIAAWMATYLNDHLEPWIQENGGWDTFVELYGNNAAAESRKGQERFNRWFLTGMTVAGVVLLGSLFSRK

| Compound | Ymin (24 h) | DC50 |
| --- | --- | --- |
| Cc1c(O[C@H]2CC[C@H](CCCCN3CCN(c4cccc5c(C6CCC(=O)NC6=O)nn(C)c45)C[C@H]3C)CC2)cccc1-c1ccc(N2CCc3cccc(C(=O)Nc4nc5ccccc5s4)c3C2)nc1C(=O)O (stereo partly drawn) [Compound 345a, 6-(8-(benzo[d]thiazol-2-ylcarbamoyl)-3,4-dihydroisoquinolin-2(1H)-yl)-3-(3-(((1s,4r)-4-(4-((2R)-4-(3-(2,6-dioxopiperidin-3-yl)-1-methyl-1H-indazol-7-yl)-2-methylpiperazin-1-yl)butyl)cyclohexyl)oxy)-2-methylphenyl)picolinic acid] | A (Ymin < 50%) | < 100 nM |
| Cc1c(O[C@H]2CC[C@H](CCCCN3CCN(c4ccc5c(C6CCC(=O)NC6=O)nn(C)c5c4)C[C@@H]3C(F)(F)F)CC2)cccc1-c1ccc(N2CCc3cccc(C(=O)Nc4nc5ccccc5s4)c3C2)nc1C(=O)O (stereo partly drawn) [Compound 346a, 6-(8-(benzo[d]thiazol-2-ylcarbamoyl)-3,4-dihydroisoquinolin-2(1H)-yl)-3-(3-(((1s,4r)-4-(4-((2R)-4-(3-(2,6-dioxopiperidin-3-yl)-1-methyl-1H-indazol-6-yl)-2-(trifluoromethyl)piperazin-1-yl)butyl)cyclohexyl)oxy)-2-methylphenyl)picolinic acid] | A (Ymin < 50%) | < 100 nM |
| Cc1c(O[C@H]2CC[C@H](CCCCN3CCN(c4ccc5c(C6CCC(=O)NC6=O)nn(C)c5c4)C[C@H]3C(F)(F)F)CC2)cccc1-c1ccc(N2CCc3cccc(C(=O)Nc4nc5ccccc5s4)c3C2)nc1C(=O)O (stereo partly drawn) [Compound 346b, 6-(8-(benzo[d]thiazol-2-ylcarbamoyl)-3,4-dihydroisoquinolin-2(1H)-yl)-3-(3-(((1r,4r)-4-(4-((2S)-4-(3-(2,6-dioxopiperidin-3-yl)-1-methyl-1H-indazol-6-yl)-2-(trifluoromethyl)piperazin-1-yl)butyl)cyclohexyl)oxy)-2-methylphenyl)picolinic acid] | A (Ymin < 50%) | < 100 nM |
| Cc1c(O[C@H]2CC[C@H](CCCN3CCN(c4ccc5c(C6CCC(=O)NC6=O)nn(C)c5c4)C[C@@H]3C(F)(F)F)CC2)cccc1-c1ccc(N2CCc3cccc(C(=O)Nc4nc5ccccc5s4)c3C2)nc1C(=O)O (stereo partly drawn) [Compound 347a, 6-(8-(benzo[d]thiazol-2-ylcarbamoyl)-3,4-dihydroisoquinolin-2(1H)-yl)-3-(3-(((1s,4r)-4-(3-((2R)-4-(3-(2,6-dioxopiperidin-3-yl)-1-methyl-1H-indazol-6-yl)-2-(trifluoromethyl)piperazin-1-yl)propyl)cyclohexyl)oxy)-2-methylphenyl)picolinic acid] | A (Ymin < 50%) | < 100 nM |
| Cc1c(O[C@H]2CC[C@H](CCCN3CCN(c4ccc5c(C6CCC(=O)NC6=O)nn(C)c5c4)C[C@H]3C(F)(F)F)CC2)cccc1-c1ccc(N2CCc3cccc(C(=O)Nc4nc5ccccc5s4)c3C2)nc1C(=O)O (stereo partly drawn) [Compound 347b, 6-(8-(benzo[d]thiazol-2-ylcarbamoyl)-3,4-dihydroisoquinolin-2(1H)-yl)-3-(3-(((1r,4r)-4-(3-((2S)-4-(3-(2,6-dioxopiperidin-3-yl)-1-methyl-1H-indazol-6-yl)-2-(trifluoromethyl)piperazin-1-yl)propyl)cyclohexyl)oxy)-2-methylphenyl)picolinic acid] | A (Ymin < 50%) | < 100 nM |
| Cc1c(O[C@H]2CC[C@H](CCCC(C)(C)N3CCN(c4ccc5c(C6CCC(=O)NC6=O)nn(C)c5c4)CC3)CC2)cccc1-c1ccc(N2CCc3cccc(C(=O)Nc4nc5ccccc5s4)c3C2)nc1C(=O)O (stereo partly drawn) [Compound 350a, 6-(8-(benzo[d]thiazol-2-ylcarbamoyl)-3,4-dihydroisoquinolin-2(1H)-yl)-3-(3-(((1s,4r)-4-(4-(4-(3-(2,6-dioxopiperidin-3-yl)-1-methyl-1H-indazol-6-yl)piperazin-1-yl)-4-methylpentyl)cyclohexyl)oxy)-2-methylphenyl)picolinic acid] | A (Ymin < 50%) | < 100 nM |

— patent US20240238423A9, “TETRAHYDROISOQUINOLINE HETEROBIFUNCTIONAL BCL-XL DEGRADERS” (Treeline Biosciences, Inc., priority 2022, published 2024)
